Values joined by “and” are separate entries in the source; they are usually repeats but may differ in a detail not shown here. Equal entries are not always repeated. “Also recorded” adds a separate entry of the source. Where two headings read alike, the source gives them in different places. Ends that are not written are not given here. A value given as a limit tells only on which side of the number the result lay.

This is an account of results in article PMC9654333, “AmyP53, a Therapeutic Peptide Candidate for the Treatment of Alzheimer’s and Parkinson’s Disease: Safety, Stability, Pharmacokinetics Parameters and Nose-to Brain Delivery” (International Journal of Molecular Sciences, 2022).

Details of series [1]: method as in PMID 22963731, PMID 23444784, PMID 33551991, PMID 17720549, PMID 15728733. Conditions: therapeutic peptides delivered to the brain via the intranasal route; cited from earlier work.
In series [2] the test system is bEnd.3 murine endothelial cells (bEnd.3/C6 co-cultures). Description: Transport through in vitro reconstituted blood–brain barrier (two-compartment chamber). It is filed as in vitro ADME, mouse. The settings on record: for Transendothelial transport through the blood–brain barrier: bEnd.3/C6 model, donor basal to acceptor apical compartment. As to the method:
An in vitro model of the blood–brain barrier was reconstituted with bEnd.3 murine endothelial cells obtained from the American Type Culture Collection (ATCC, Manassas, VA, USA) ref. bEnd.3 [BEND3] (ATCC CRL-2299). These cells were cultured in chambers with two compartments separated by a filter with a porosity of 0.4 µm (Corning-Transwell, Dominique Dutscher, Bernolsheim, France). The cells were seeded at a density of 50,000 cells per individual filter and cultured in a growth medium containing 10% fetal calf serum. After an initial spreading step, the bEnd.3 cells colonized the entire surface available on the filter, thus reconstituting a functional endothelium. At this stage, the cells established tight junctions preventing the passage of molecules and ions. In order to improve the differentiation of bEnd.3 cells, we also set up two coculture systems: [bEnd.3 + astrocytes (CTX cells)] and [bEnd.3 + glioma (C6 cells)]. In these cases, the glial cells were seeded in the basal compartment (non-contact model) and co-cultured for 6 days before using bEnd.3 cell monolayers for transport experiments. The impermeability of each of these cellular barriers was assessed by transendothelial resistance measurements with a Voltmeter-Ohmmeter Millicell-ERS (Merck-Millipore, Burlington, MA, USA). […] All experiments were performed 6 times.

A short description of series [3]: Chemical stability of aqueous solution upon storage (LC–MS). The format is physicochemical. The settings on record: 1 mM in pure water, stored 18 months at 4 °C, 20 °C and 45 °C. How it is done:
AmyP53 samples (1 mM in water) were stored at 4 °C, 20 °C, and 45 °C in sealed Eppendorf tubes and analyzed at different time points for chemical integrity (LC-MS method) and biological activity (binding to ganglioside GM1). For calibration, different dilutions of the standard solution were injected three times, and the peak area was measured for all three. […] The percentage of recovery was >98%, in full agreement with the certificate analysis of AmyP53 batch # #P190628-LL735654. LC–MS linearity was observed over the 5–100 pmol injected range (R^2 > 0.99). The minimal amount detected was 5 pmol.

A short description of series [4]: In vitro stability in rat whole blood (LC–MS). The format is in vitro ADME. How it is done:
(§1) Supernatants were stored at −20 °C before analysis.
(§2) AmyP53 in water solution (300 µM) was mixed with rat blood (obtained from Syncrosome, Marseille, France), or commercial human serum (Sigma-Aldrich, St. Louis, MO, USA). AmyP53 concentrations were then determined by LC–MS at the indicated times after extraction, as detailed above.

A short description of series [5]: In vitro stability in commercial human serum (LC–MS). The format is in vitro ADME. As to the method:
as §1, §2

The conditions of series [6]: rat, in vivo.
Description: (§3) Male and female Sprague Dawley rats, 6 weeks old at receipt, weighing around 300 g at the beginning of the experiments were used for pharmacokinetics studies. The animals that were included in these experiments were naïve to the previous administration of drugs. The acclimatization of rats lasted at least 5 days. Animals had free access to food (RM1, SDS Dietex) and drinking water ad libitum. […] The protocol used by Syncrosome was approved by an Animal Ethical Committee (French National Committee N°71) and by the Higher Education and Research Ministry (#2015070314429284_v2). […] Every effort was done to minimize animal suffering and to reduce the number of animals used in the experiments in compliance with the ARRIVE guidelines.
(§4) One compound formulation at one dose for each route of administration was tested during the present study. The data were treated with the PKsolver add-in of Excel [125].
(§5) Anesthetized (ketamine/medetomidine or isoflurane 4% for induction and then 2.5%) rats were treated intravenously once. The final volume of administration was 0.5 mL/kg (100 mg/kg body weight). As soon as the administration was performed (t0), a timer was started.
(§6) A catheter was introduced into each nostril of the rat with a depth of 7 mm [126]. Anesthetized (ketamine/medetomidine or isoflurane 4% for induction and then 2.5%) rats were treated once. The volume of administration was 10 μL/nostril (20 μL per rat, 12 mg/kg body weight). As soon as the administration was performed (t0), a timer was started.
(§7) Blood samples of 2 mL were collected through direct intracardiac puncture and separated on two K3-EDTA Greiner Bio-One tubes of 1 mL (ref. 454034A, Dominique Dutscher, Bernolsheim, France). A 100× solution of protease inhibitors (ref. 1862209, ThermoScientific, Waltham, MA, USA) was added immediately after sampling (10 μL/tube). The first tube of the blood sample was then separated in 2 samples with different procedures (with and without sonication) and the other one was used for plasma preparation.
(§8) Brains were collected immediately after blood collection, split in 2 hemispheres, and then transferred into Eppendorf tubes. Brain samples were placed into crushed dry ice for several minutes and frozen at −80 °C. When indicated, the rats were transcardially perfused with a solution of phosphate-buffered saline (PBS) for 10 min with a flow rate of 40 mL/min to remove blood in the brain tissue. A subcutaneous administration of buprenorphine (0.03 mg/kg) was performed at least 30 min prior to transcardial perfusion.
(§9) For blood and serum stability and for pharmacokinetics studies, blood and plasma samples (200 µL) were incubated with 3 volumes of methanol for 30 min at 4 °C and then centrifuged at 4 °C for 5 min (16,000× g). Supernatants were stored at −20 °C before analysis. Brain homogenates were prepared at 4 °C in PBS containing 1 mM EDTA and protease inhibitors (ref. 1862209, ThermoScientific, Waltham, MA, USA) in a glass Potter homogenizer. Homogenate samples (600 µL) were incubated with 3 volumes of methanol for 30 min at 4 °C and centrifuged at 4 °C for 5 min (16,000× g). Supernatants were evaporated under nitrogen flux and then diluted in 100 µL of 0.1% formic acid in water.
(§10) The concentrations of intact AmyP53 in biological samples were determined by liquid chromatography–mass spectrometry (Acquity iClass-Vion LC-MS; Waters, Guyancourt, France).
Another series in a line: in vivo. Conditions: both, Sprague Dawley, rat, 12 mg/kg.
The conditions of series [7]: cited from earlier work.
A short description of series [8]: Toxicology study, repeated intranasal administration over 7 days. The settings on record: for Behavior (Days 1–7) / Brain Histology / Inflammation at Nostrils / Body Weight (Day 7): rat; for Body Weight (Day 7): mean ± SEM, in g (unit assumed).
Protocol: Male and female Wistar rats (4 animals per group) were treated with the indicated dose of AmyP53, and toxicology studies were conducted as previously described [75]. Statistical analysis was performed with the Kruskal–Wallis test.
A short description of series [9]: Pharmacokinetics in rat blood and brain after intranasal or intravenous administration.
Description: as §3, §4, §5, §6, §7, §8, §9, §10

Description for in vivo: as §3, §4, §5, §6, §7, §8, §9, §10

For “EPO: therapeutic peptide delivered to the brain via the intranasal route, 165 aa”, the pHi in series [1] is 8.7.
In the case of RRLSYSRRRF [synB3, reference compound], the “Transendothelial transport through the blood–brain barrier” value in series [2] is “efficiently crossed the blood–brain barrier”.
Take “VIP: therapeutic peptide delivered to the brain via the intranasal route, 28 aa [reference compound]”: in series [1], the pHi is reported as 9.8.
For KEGVLYVGHHTK [AmyP53], the “Chemical stability in water solution” value in series [3] is “remains chemically intact over 18 months; also recorded: remained remarkably stable under all these conditions”. Further, the half-life at 300 µM in series [4] (rat fresh whole blood, read-out: Half-life time) amounted to 17 min; in series [5] (commercial human serum, read-out: Half-life time), 5 min. The Detection after incubation result was “still detected after 60 min” in series [4] (rat whole blood, 300 µM, 60 min) and “no longer detected in serum after 30 min” in series [5] (human serum, 300 µM, 30 min). In addition, the “Transendothelial transport through the blood–brain barrier” value in series [2] was “almost as effective as synB3 and more than synB5; also recorded: at least as efficiently as syn B3 and even more than syn B5”. In series [2] (reconstituted blood–brain barrier, incubation with AmyP53), the “Transendothelial resistance during incubation” value is recorded as “remained unchanged”. Moreover, the Tmax in series [6] (both, Sprague Dawley, 12 mg/kg) is 5 min; in “in vivo”, 10 min. Also, the “AmyP53 reaching the brain” value in [6] is 1.57%. The “Efficiency of nose-to-brain delivery versus blood circulation” value in [6] was 7.85 fold. For the same substance, in “physchem”, the solubility was > 146000 µM and > 200000 µg/mL. The “Inflammatory reaction in the nostrils and the tails” value in series [7] (AmyP53-treated rats) is “no inflammatory reaction could be observed”. Besides, the Tolerance result in [7] (rats, administered intravenously or intranasally) was “perfect tolerance”. For the same substance, the Undesirable effects result in series [7] (rats, intranasal administration, doses up to 5 mg/kg body weight) is on record as “no undesirable effect could be detected”; in series [7] (rats, intravenous administration, doses up to 80 mg/kg), “no undesirable effect could be detected”. Further, the “Toxicology findings after repeated intranasal injections” value in series [8] (male and female Wistar rats, doses up to 5 mg/kg body weight, 7-day period) is “no mortality, no behavioral changes, no body weight loss, and no alterations of brain tissue at autopsy”. For the same substance, the “Behavior (Days 1–7)” value in series [8] (female, intranasal 0.2 mg/kg) is “NTR NTR”; in [8] (female, intranasal 1.0 mg/kg), “NTR NTR”; in series [8] (female, intranasal 5.0 mg/kg), “NTR NTR”; in series [8] (male, intranasal 0.2 mg/kg) it was “NTR NTR”; in series [8] (male, intranasal 1.0 mg/kg) it was “NTR NTR”; in series [8] (male, intranasal 5.0 mg/kg), “NTR NTR”. For the same substance, the “Brain Histology” value in series [8] (female, intranasal 0.2 mg/kg) is reported as “NTR NTR”; in series [8] (female, intranasal 1.0 mg/kg) it was “NTR NTR”; in [8] (female, intranasal 5.0 mg/kg) it was “NTR NTR”; in series [8] (male, intranasal 0.2 mg/kg), “NTR NTR”; in series [8] (male, intranasal 1.0 mg/kg), “NTR NTR”; in [8] (male, intranasal 5.0 mg/kg) it was “NTR NTR”. Further, the “Inflammation at Nostrils” value was “No No” in series [8] (female, intranasal 0.2 mg/kg every two days during 7 days); “No No” in [8] (female, intranasal 1.0 mg/kg every two days during 7 days); “No No” in series [8] (female, intranasal 5.0 mg/kg every two days during 7 days); “No No” in [8] (male, intranasal 0.2 mg/kg every two days during 7 days); “No No” in [8] (male, intranasal 1.0 mg/kg every two days during 7 days); “No No” in series [8] (male, intranasal 5.0 mg/kg every two days during 7 days). Besides, the “Body Weight (Day 7)” value came to 189.46 ± 15.15 in [8] (female, intranasal 0.2 mg/kg); 191.03 ± 3.13 in series [8] (female, intranasal 1.0 mg/kg); 185.70 ± 5.77 in series [8] (female, intranasal 5.0 mg/kg); 248.94 ± 8.51 in series [8] (male, intranasal 0.2 mg/kg); 252.26 ± 5.77 in series [8] (male, intranasal 1.0 mg/kg); 250.90 ± 5.68 in series [8] (male, intranasal 5.0 mg/kg). The “Ratio of AUCIN/AUCiv” value in [9] (blood) is given as 123%; in series [9] (brain), 94%.
As to “RGGRLAYLRRRWAVLGR [synB5, reference compound]”, in series [2], the “Transendothelial transport through the blood–brain barrier” value is “efficiently crossed the blood–brain barrier”.
For Vasopressin [reference compound], the pHi in [1] is reported as 8.0.
For “NGF: therapeutic peptide delivered to the brain via the intranasal route, 120 aa”, in series [1], the pHi is recorded as 9.0.
For the substance “TGF-β: therapeutic peptide delivered to the brain via the intranasal route, 112 aa”, the pHi in [1] was 8.6.
